Earlier results in US20080103199A1, “TREATMENT OF PERVASIVE DEVELOPMENTAL DISORDERS” (priority 2006, published 2008).

System: submissive rats
Conditions: treatment of the submissive subject, 3 weeks; literature (Malatynska 2002); cited from earlier work

CNCCCN1c2ccccc2CCc2ccccc21 [desipramine]
Effect on submissive behavior: reduced submissive behavior
